What all share (format): functional
In experiment [1] the test system is Plutella xylostella. The experiment in a line: Insecticidal activity against Plutella xylostella (diamondback moth) fed on artificial diet containing compound assessed as mortality at 31.25 ug/ml after 96 hr.
In experiment [2] the test system is Plutella xylostella. The experiment can be described thus: Insecticidal activity against Plutella xylostella (diamondback moth) fed on artificial diet containing compound assessed as mortality at 62.5 ug/ml after 96 hr.
The test system of experiment [3] is Plutella xylostella. The experiment can be described thus: Insecticidal activity against Plutella xylostella (diamondback moth) fed on artificial diet containing compound assessed as mortality at 125 ug/ml after 96 hr.
Experiment [4] has as its system Plutella xylostella. The experiment in a line: Insecticidal activity against Plutella xylostella (diamondback moth) fed on artificial diet containing compound assessed as mortality at 250 ug/ml after 96 hr.
Experiment [5] deals with Plutella xylostella. The experiment can be described thus: Insecticidal activity against Plutella xylostella (diamondback moth) fed on artificial diet containing compound assessed as mortality at 500 ug/ml after 96 hr.
Experiment [6] relates to Plutella xylostella. The experiment can be described thus: Insecticidal activity against Plutella xylostella (diamondback moth) fed on artificial diet containing compound assessed as mortality at 1000 ug/ml after 96 hr.
Experiment [7] deals with Helicoverpa armigera. The experiment in a line: Insecticidal activity against Helicoverpa armigera fed on artificial diet containing compound assessed as mortality at 31.25 ug/ml after 96 hr.
In experiment [8] the test system is Helicoverpa armigera. The experiment can be described thus: Insecticidal activity against Helicoverpa armigera fed on artificial diet containing compound assessed as mortality at 62.5 ug/ml after 96 hr.
Experiment [9] relates to Helicoverpa armigera. The experiment can be described thus: Insecticidal activity against Helicoverpa armigera fed on artificial diet containing compound assessed as mortality at 125 ug/ml after 96 hr.
Experiment [10] concerns Helicoverpa armigera. The experiment in a line: Insecticidal activity against Helicoverpa armigera fed on artificial diet containing compound assessed as mortality at 250 ug/ml after 96 hr.
Experiment [11] relates to Helicoverpa armigera. The experiment can be described thus: Insecticidal activity against Helicoverpa armigera fed on artificial diet containing compound assessed as mortality at 500 ug/ml after 96 hr.
For experiment [12], the system named is Helicoverpa armigera. The experiment can be described thus: Insecticidal activity against Helicoverpa armigera fed on artificial diet containing compound assessed as mortality at 1000 ug/ml after 96 hr.

In the case of `O=C(Nc1cc(C(F)(F)F)cc(C(F)(F)F)c1)c1ccccc1OCc1ccc(Cl)nc1`, the mortality at 31.25 µg/mL in [1] and in [7] was 0% throughout. In addition, the mortality at 62.5 µg/mL in experiment [2] and in [8] was 0% each time. The mortality at 125 µg/mL in experiment [3] and in [9] was 0% each time. In addition, the mortality at 250 µg/mL in experiment [4] and in experiment [10] was 0% in each case. The mortality at 500 µg/mL in [5] and in [11] was 0% throughout. Besides, the mortality at 1000 µg/mL in [6] and in [12] was 0% in each case.
Turning to `O=C(Nc1ccc(C(F)(F)F)cc1)c1ccccc1OCc1ccc(Cl)nc1`, the mortality at 31.25 µg/mL in [1] turned out to be 81%; in experiment [7], 61%. In addition, the mortality at 62.5 µg/mL in [2] and in [8] was 100% each time. The mortality at 125 µg/mL in experiment [3] and in experiment [9] was 100% in each case. Further, the mortality at 250 µg/mL in experiment [4] and in experiment [10] was 100% in each case. The mortality at 500 µg/mL in experiment [5] and in experiment [11] was 100% throughout. For the same molecule, the mortality at 1000 µg/mL in experiment [6] and in [12] was 100% throughout.
Take `O=C(c1ccccc1OCc1ccc(Cl)nc1)N1CCCCC1`: the mortality at 31.25 µg/mL in [1] and in [7] was 0% in each case. Moreover, the mortality at 62.5 µg/mL in experiment [2] and in experiment [8] was 0% each time. Moreover, the mortality at 125 µg/mL in [3] and in experiment [9] was 0% each time. The mortality at 250 µg/mL in experiment [4] and in experiment [10] was 0% in each case. In addition, the mortality at 500 µg/mL was 41% in experiment [5] and 0% in [11]. The mortality at 1000 µg/mL in experiment [6] and in experiment [12] was 41% each time.
On to `CCN(CC)C(=O)c1ccccc1OCc1ccc(Cl)nc1`, for which the mortality at 31.25 µg/mL in [1] and in [7] was 0% each time. For the same molecule, the mortality at 62.5 µg/mL in experiment [2] and in experiment [8] was 0% in each case. For the same molecule, the mortality at 125 µg/mL in [3] and in experiment [9] was 0% throughout. Also, the mortality at 250 µg/mL in experiment [4] and in [10] was 0% in each case. In addition, the mortality at 500 µg/mL in experiment [5] and in [11] was 0% in each case. Moreover, the mortality at 1000 µg/mL in experiment [6] and in experiment [12] was 41% throughout.
As to `O=C(Nc1ccc(Br)cc1)c1ccccc1OCc1ccc(Cl)nc1`, the mortality at 31.25 µg/mL in experiment [1] was 41%; in experiment [7] it was 61%. Also, the mortality at 62.5 µg/mL in experiment [2] stood at 100%; in [8], 61%. Also, the mortality at 125 µg/mL in [3] came out at 100%; in experiment [9] it was 81%. The mortality at 250 µg/mL in [4] was found to be 100%; in experiment [10], 81%. Also, the mortality at 500 µg/mL in experiment [5] and in [11] was 100% in each case. Moreover, the mortality at 1000 µg/mL in experiment [6] and in experiment [12] was 100% each time.
As to `Cc1ccccc1NC(=O)c1ccccc1OCc1ccc(Cl)nc1`, the mortality at 31.25 µg/mL in experiment [1] and in experiment [7] was 0% in each case. Besides, the mortality at 62.5 µg/mL in experiment [2] and in [8] was 0% each time. Further, the mortality at 125 µg/mL in experiment [3] and in experiment [9] was 0% in each case. Further, the mortality at 250 µg/mL in experiment [4] and in experiment [10] was 0% in each case. Further, the mortality at 500 µg/mL in experiment [5] and in experiment [11] was 0% each time. Besides, the mortality at 1000 µg/mL in experiment [6] and in experiment [12] was 0% throughout.
For the molecule `O=C(Nc1ccc(F)cc1)c1ccccc1OCc1ccc(Cl)nc1`, the mortality at 31.25 µg/mL in experiment [1] and in experiment [7] was 0% throughout. Also, the mortality at 62.5 µg/mL in experiment [2] and in experiment [8] was 0% in each case. For the same molecule, the mortality at 125 µg/mL in experiment [3] and in experiment [9] was 41% each time. Further, the mortality at 250 µg/mL in experiment [4] and in experiment [10] was 41% throughout. Further, the mortality at 500 µg/mL is 81% in [5] and 41% in experiment [11]. The mortality at 1000 µg/mL in experiment [6] was 100%; in experiment [12] it was 41%.
Consider `O=C(Nc1cc(Cl)c(OC(F)(F)C(F)F)c(Cl)c1)c1ccccc1OCc1ccc(Cl)nc1`, for which the mortality at 31.25 µg/mL in experiment [1] came out at 41%; in experiment [7], 0%. Further, the mortality at 62.5 µg/mL was found to be 41% in experiment [2] and 0% in experiment [8]. The values for the mortality at 125 µg/mL in [3] and in [9] were 100% and 0%, respectively. The mortality at 250 µg/mL in [4] amounted to 100%; in [10], 41%. Further, the mortality at 500 µg/mL was 100% in experiment [5] and 41% in [11]. For the same molecule, the mortality at 1000 µg/mL in experiment [6] and in experiment [12] was 100% each time.
As for `CC(C)N(C(=O)c1ccccc1OCc1ccc(Cl)nc1)C(C)C`, the mortality at 31.25 µg/mL in [1] and in experiment [7] was 0% in each case. The mortality at 62.5 µg/mL in experiment [2] and in experiment [8] was 0% throughout. Moreover, the mortality at 125 µg/mL in experiment [3] and in [9] was 41% in each case. The mortality at 250 µg/mL in experiment [4] turned out to be 100%; in experiment [10], 41%. Also, the mortality at 500 µg/mL in experiment [5] and in [11] was 100% each time. Besides, the mortality at 1000 µg/mL in experiment [6] and in [12] was 100% throughout.
On to `O=C(Nc1ccccc1)c1ccccc1OCc1ccc(Cl)nc1`, for which the mortality at 31.25 µg/mL in experiment [1] and in experiment [7] was 0% each time. Further, the mortality at 62.5 µg/mL in experiment [2] and in experiment [8] was 0% each time. For the same molecule, the results for the mortality at 125 µg/mL in experiment [3] and in experiment [9] were 41% and 0%, respectively. Moreover, the mortality at 250 µg/mL in [4] stood at 41%; in experiment [10] it was 0%. The mortality at 500 µg/mL is 81% in experiment [5] and 0% in experiment [11]. For the same molecule, the mortality at 1000 µg/mL in [6] is 81%; in experiment [12] it was 0%.
Take `COc1ccc(NC(=O)c2ccccc2OCc2ccc(Cl)nc2)cc1`: the figures for the mortality at 31.25 µg/mL in [1] and in experiment [7] were 41% and 0%, respectively. For the same molecule, the mortality at 62.5 µg/mL in [2] amounted to 81%; in experiment [8], 0%. The mortality at 125 µg/mL in [3] amounted to 100%; in experiment [9] it was 0%. The mortality at 250 µg/mL in experiment [4] came out at 100%; in experiment [10], 0%. In addition, the figures for the mortality at 500 µg/mL in experiment [5] and in experiment [11] were 100% and 0%, respectively. Further, the results for the mortality at 1000 µg/mL in experiment [6] and in experiment [12] were 100% and 0%, respectively.
`O=C(c1ccccc1OCc1ccc(Cl)nc1)N1CCOCC1`: the mortality at 31.25 µg/mL in experiment [1] and in experiment [7] was 0% each time. In addition, the mortality at 62.5 µg/mL in experiment [2] and in experiment [8] was 0% throughout. Further, the mortality at 125 µg/mL in [3] and in experiment [9] was 0% each time. For the same molecule, the mortality at 250 µg/mL in [4] and in experiment [10] was 0% each time. Also, the mortality at 500 µg/mL in [5] turned out to be 0%; in [11], 41%. For the same molecule, the mortality at 1000 µg/mL came out at 41% in experiment [6] and 100% in experiment [12].
As to `O=C(Nc1ccc(I)cc1)c1ccccc1OCc1ccc(Cl)nc1`, the mortality at 31.25 µg/mL in [1] and in experiment [7] was 0% throughout. The mortality at 62.5 µg/mL in experiment [2] and in [8] was 0% in each case. The mortality at 125 µg/mL in [3] was determined as 41%; in experiment [9] it was 0%. Moreover, the mortality at 250 µg/mL came out at 100% in experiment [4] and 0% in [10]. In addition, the mortality at 500 µg/mL amounted to 100% in experiment [5] and 0% in [11]. Further, the mortality at 1000 µg/mL was 100% in experiment [6] and 0% in experiment [12].
Regarding `CC(C)NC(=O)c1ccccc1OCc1ccc(Cl)nc1`, the mortality at 31.25 µg/mL in experiment [1] and in [7] was 0% throughout. For the same molecule, the mortality at 62.5 µg/mL in experiment [2] and in [8] was 0% in each case. In addition, the mortality at 125 µg/mL in experiment [3] was 41%; in [9], 0%. The values for the mortality at 250 µg/mL in experiment [4] and in experiment [10] were 100% and 0%, respectively. Moreover, the mortality at 500 µg/mL in [5] was 100%; in experiment [11], 41%. For the same molecule, the mortality at 1000 µg/mL in experiment [6] stood at 100%; in experiment [12], 41%.
As for `O=C(Nc1ccccn1)c1ccccc1OCc1ccc(Cl)nc1`, the mortality at 31.25 µg/mL in experiment [1] and in experiment [7] was 0% each time. Besides, the mortality at 62.5 µg/mL in [2] and in experiment [8] was 0% in each case. In addition, the mortality at 125 µg/mL in [3] and in experiment [9] was 0% throughout. Further, the mortality at 250 µg/mL in [4] came out at 41%; in experiment [10], 0%. Also, the mortality at 500 µg/mL in [5] worked out at 41%; in experiment [11] it was 0%. Moreover, the mortality at 1000 µg/mL in [6] came out at 100%; in experiment [12], 0%.

As usually defined, the mortality is the percentage killed.
